The results in this text go back to patent US10159678B2, “Methods to decrease susceptibility to asthmatic bronchoconstriction” (Cornell University, priority 2012, dated 2018).

The structures appear in SMILES notation.

One assay addresses T1, SPT (Mus musculus, UniProt O35704+P97363).
T1 construct: from tissue
T1 sequence (P97363 1-560): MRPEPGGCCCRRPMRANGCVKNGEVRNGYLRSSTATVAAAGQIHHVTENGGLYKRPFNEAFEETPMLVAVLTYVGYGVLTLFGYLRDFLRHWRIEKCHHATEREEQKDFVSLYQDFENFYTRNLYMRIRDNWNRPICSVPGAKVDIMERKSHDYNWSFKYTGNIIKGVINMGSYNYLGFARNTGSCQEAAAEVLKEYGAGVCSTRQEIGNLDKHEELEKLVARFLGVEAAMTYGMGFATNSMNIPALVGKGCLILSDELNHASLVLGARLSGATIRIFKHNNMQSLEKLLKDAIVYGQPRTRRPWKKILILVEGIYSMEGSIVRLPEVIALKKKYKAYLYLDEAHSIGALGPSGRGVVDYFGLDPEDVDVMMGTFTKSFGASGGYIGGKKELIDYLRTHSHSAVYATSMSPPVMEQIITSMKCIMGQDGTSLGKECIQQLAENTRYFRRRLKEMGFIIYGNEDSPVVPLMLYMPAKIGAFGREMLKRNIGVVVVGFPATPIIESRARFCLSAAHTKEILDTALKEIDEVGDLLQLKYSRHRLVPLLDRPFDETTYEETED
T1 sequence (O35704 1-473): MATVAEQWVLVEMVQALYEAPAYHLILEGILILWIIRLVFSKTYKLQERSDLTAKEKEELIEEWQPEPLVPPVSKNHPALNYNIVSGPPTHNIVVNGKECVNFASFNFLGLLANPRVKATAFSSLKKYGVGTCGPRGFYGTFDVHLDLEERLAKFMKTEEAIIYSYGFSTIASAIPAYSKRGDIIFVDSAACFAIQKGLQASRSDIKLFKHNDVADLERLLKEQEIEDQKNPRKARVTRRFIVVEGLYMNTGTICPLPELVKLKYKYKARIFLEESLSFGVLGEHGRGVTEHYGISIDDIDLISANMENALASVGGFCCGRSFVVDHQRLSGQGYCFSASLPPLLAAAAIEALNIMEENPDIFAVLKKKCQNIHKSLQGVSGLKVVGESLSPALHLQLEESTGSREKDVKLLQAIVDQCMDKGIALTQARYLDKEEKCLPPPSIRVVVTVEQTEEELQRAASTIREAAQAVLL
T1 sequence (Q8R207 1-71 partner): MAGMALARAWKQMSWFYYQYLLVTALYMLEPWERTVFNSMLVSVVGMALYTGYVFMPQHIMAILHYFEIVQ
Description: Incorporation of 3H-serine / 3H-sphingosine in lung homogenates after intranasal myriocin. Format: in vivo, mice. Here is the method: Lungs were harvested following perfusion with phosphate-buffered saline (PBS, Invitrogen, Carlsbad, Calif.) containing 0.6 mM ethylenediamine tetra acetic acid dipotassium salt dehydrate (EDTA, Invitrogen) via the right ventricle to remove blood cells from the pulmonary circulation. The lungs were then homogenized in normal PBS. De-novo sphingolipid synthesis was assessed by evaluating incorporation of ^3H-serine (24.1 Ci/mmol, Perkin Elmer (Boston, Mass.) into ceramide and sphingosine. Sphingolipid synthesis through the recycling pathway was assessed by evaluating incorporation of ^3H-sphingosine (18.2 Ci/mmol, Perkin Elmer (Boston, Mass.) into ceramide and sphingomyelin. In both assays, equal amounts of fresh lung homogenates were incubated for 30 min at 37° C. with 2 μl of the radioactive tracer, followed by lyophilization to determine dry weight, lipid extraction with chloroform/methanol/water (1:1:0.9). The organic phase was evaporated, dissolved in 50 μl chloroform/methanol (1:1) spotted on […] chromatography plates (TLC) (Merck Silica gel 60, Darmstadt, Germany) and chromatographed for 25 min with chloroform-methanol-ammonium hydroxide (65:25:4 v/v). […] The TLC plate was cut at the corresponding lipid spot, mixed with scintillation fluid (Ultima Gold, Packard Instrument Company, CT) and analyzed in a scintillation counter (Perkin Elmer Wallac, Gaithersburg, Md.). […]

The subject of another assay is Muc5ac. Description: Mucus production (PAS stain, Muc5ac mRNA) after myriocin. Format: in vivo. To be noted: myriocin-treated mice. An excerpt:
Lung sections were stained with periodic acid-Schiff stain (PAS) and analyzed by light microscopy. Expression of MUC5ac (Mm01276735) was quantified by TaqMan RealTime RT-PCR as described above.

Another assay relates to isolated bronchial rings. The assay is described as follows: Myograph contractile response of bronchial rings isolated from myriocin-treated mice. Format: in vivo. The conditions noted are these: rings isolated from mice given myriocin (20 μg) intranasally; dose-dependent manner; FIG. 3C, 3D. Here is the method:
To directly assess bronchial reactivity bronchi were dissected from myriocin treated mice, Sptlc2^+/− or naïve mice, and mounted on hooks in a multiwire myograph system (DMT, Ann Arbor, Mich.) where they were kept at a resting tension of 200-250 mg in Krebs Henseleit (KH) solution at 37° C. (95% O2, 5% CO2). In addition, bronchial rings from naïve mice were bathed in myriocin (10 μM) for 3 h in the myograph before analysis. Mechanical forces were measured isometrically with force transducers interfaced to a data acquisition system (ADInstruments, Colorado Springs, Colo.) and analyzed with LabChart6Pro for Windows. Potassium (80 mM) was used to achieve maximum contraction and methacholine (0.01-10 μM) was added 30 min after washout of the K^+ solution. Contractile responses were measured as percentage of the response to K^+.

Turning to `CCCCCCC(=O)CCCCCC/C=C/C[C@@H](O)[C@H](O)[C@@](N)(CO)C(=O)O` [myriocin], the “SPT-dependent synthesis of sphinganine from 3H-serine” value on SPT (3 hours following intranasal administration of myriocin) is listed as “significantly decreased”. The “Non-SPT-dependent syntheses of ceramides or sphingomyelins from 3H-sphingosine” value on SPT (after myriocin administration, data not shown) was “not affected”. Moreover, the “mucus-producing cells on PAS-stained lung sections” value with Muc5ac is recorded as “No differences”. The “Expression of Muc5ac in the lungs” value in the assay with Muc5ac (FIG. 4K) was “unchanged”. Besides, the “contractile responses of bronchial rings to methacholine” value with isolated bronchial rings is reported as “increased”.
